Measurements from patent US20220389013A1, “PYRIDOPYRIMIDINONE COMPOUNDS AND APPLICATIONS THEREOF” (BeBetter Med Inc., priority 2020, published 2022).
Counter-ions that a name gives are not always drawn. Blank lines part the entries; values can stand above or below the compound they belong to.

Experiments:
H23 (KRAS G12C) = assay: Tumor cell proliferation inhibition assay (CellTiter-Glo), H23; assay type: cell-based, Human; conditions: 10% fetal bovine serum
Protocol: The H358, H23 or MIA-Paca2 cells were digested, centrifuged and resuspended, and the cell density was measured with a Scepter automatic cell counter. Cells were diluted to a solution containing 44,000 cells per milliliter, then added to a 96-well culture plate at 90 μL per well. The 96-well plate was placed in a 5% CO2 incubator at 37° C., and after the cells were cultured for 24 hours, different concentrations of the compounds to be tested were added. Cells were incubated with compounds in the presence of 10% fetal bovine serum for 72 hours. The inhibition of cell growth was assessed by measuring ATP levels by using the CellTiter-Glo Luminescent Cell Viability Assay Kit (details in manufacturer's instructions). In brief, 30 μL of CellTiter-Glo reagent was added to each well and the plate was shaken for 10 minutes to induce cell lysis, then the fluorescent signal was detected and recorded with a Fluoroskan Ascent FL (Thermo). Maximum signal values were obtained from cells treated with DMSO for 72 hours. Minimum signal values were obtained with medium only (zero cell number). Inhibition rate %=(maximum signal value-compound signal value)/(maximum signal value-minimum signal value)×100%. Data were processed by using Graphpad prism5 software. IC50 values were calculated using a sigmoidal dose-response curve.

KRAS-G12C/SOS1 = target: T1, KRAS-G12C/SOS1 (Homo sapiens, UniProt P01116, G12C); assay: HTRF KRAS-G12C/SOS1 binding assay; conditions: 2 hours room temperature
T1 construct: purchased Cisbio #63ADK000CB16PEG
T1 sequence (P01116 1-188 isoform P01116-2 G12C): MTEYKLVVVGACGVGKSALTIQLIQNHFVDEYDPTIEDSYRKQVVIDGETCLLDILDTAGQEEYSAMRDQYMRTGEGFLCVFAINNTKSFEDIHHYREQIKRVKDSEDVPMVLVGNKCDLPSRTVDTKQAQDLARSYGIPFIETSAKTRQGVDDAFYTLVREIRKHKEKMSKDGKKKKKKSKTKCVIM

MIA-Paca2 (KRAS G12C) = assay: Tumor cell proliferation inhibition assay (CellTiter-Glo), MIA-Paca2; assay type: cell-based, Human; conditions: 10% fetal bovine serum
Outline: (§1)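 Growth was read as ATP by CellTiter-Glo luminescence, with inhibition normalised to DMSO (max) and medium-only (min) wells. IC50 came from sigmoidal dose-response fits.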

[1] = Caco-2 cell transmembrane transport experiment; conditions: human; for efflux ratio at 90 min, 10 μM: Caco-2, pH 7.4; for Papp B→A at 90 min, 10 μM: basolateral to apical
From the text: (§2) In this experiment, a monolayer of Caco-2 cells was used to assess drug penetration. […] The apparent permeability coefficient from apical to basolateral (Papp A-B) and the basolateral to apical permeability coefficient (Papp B-A) of compounds represent the ability of the compound to be transported in both directions, respectively.
(§3) Apparent permeability coefficient (Papp)=(the volume of the receiver chamber/the filter surface area×culture time))×(the drug concentration of receiver chamber at the end of culture/(the drug concentration of donor chamber at the initial culture×dilution factor)
(§4) In this experiment, Millipore cell culture plates (PSHT 010 R5): membrane area=0.7 cm^2, recipient side volume=0.8 mL (A-to-B) or 0.4 mL (B-to-A), incubation time=90 minutes.

[2] = Pharmacokinetic (PK) experiment in rats by gavage; assay type: in vivo; conditions: rat, plasma, po, male SD rats, 20 mg/kg; for AUC(0-t): read-out: AUC0-24
H358 (KRAS G12C) = assay: Tumor cell proliferation inhibition assay (CellTiter-Glo), H358; assay type: cell-based, Human; conditions: 10% fetal bovine serum
Outline: as §1

H358 xenograft tumor = assay: H358 human non-small cell lung cancer subcutaneous mouse xenograft model, anticancer activity; assay type: in vivo, BALB/c nude mice; conditions: 100 mg/kg, po, qd, 26 days
Protocol: In this experiment, the anticancer activities of compounds 73-1 and 90-1 in the subcutaneous tumor model of H358 human non-small cell lung cancer xenograft mice, and the dose-response relationship of compound 73-1 in inhibiting the growth of H358 xenograft tumors were investigated. […] When H358 cells were cultured to a sufficient number, cells were collected. […] Vernier calipers were used to measure the size of the tumor. The formula for calculating the tumor volume is: tumor volume=(length×width^2)/2, and the formula for calculating the relative tumor proliferation rate T/C value is: T/C (%)=100×ΔT/ΔC (ΔT>0) or T/T (%)=100×ΔT/T0 (ΔT<0). ΔT is the difference of tumor volume in the treatment group, ΔC is the difference of tumor volume in the vehicle control group, and T0 is the tumor volume in the treatment group before administration.
The dosage of the all groups, except the vehicle control group, was 100 mg/kg, 10 mL/kg orally administered by gavage, once a day. […] All the groups were administered continuously for 26 days.

in vitro = conditions: human; for efflux ratio at 90 min, 10 μM: Caco-2, pH 7.4
From the text: as §2, §3, §4

[3] = Caco-2, pH 7.4, Papp A-B Sample_01, 10 μM, pH 7.4, 37° C., 90 min, apical to basolateral
[4] = Caco-2, pH 7.4, Papp A-B Sample_02, 10 μM, pH 7.4, 37° C., 90 min, apical to basolateral
[5] = Caco-2, pH 7.4, Papp A-B mean value, 10 μM, pH 7.4, 37° C., 90 min, apical to basolateral
[6] = Caco-2, pH 7.4, Papp B-A Sample_01, 10 μM, pH 7.4, 37° C., 90 min
[7] = Caco-2, pH 7.4, Papp B-A Sample_02, 10 μM, pH 7.4, 37° C., 90 min
[8] = Caco-2, pH 7.4, Papp B-A mean value, 10 μM, pH 7.4, 37° C., 90 min
[9] = Caco-2, pH 7.4, apparent permeability coefficient Papp A-B, Caco-2
[10] = Caco-2, pH 7.4, Papp A-B Sample_01
[11] = Caco-2, pH 7.4, Papp A-B Sample_02
[12] = Caco-2, pH 7.4, Papp A-B mean value
[13] = Caco-2, pH 7.4, Papp B-A Sample_01
[14] = Caco-2, pH 7.4, Papp B-A Sample_02
[15] = Caco-2, pH 7.4, Papp B-A mean value

Compound: C=CC(=O)N1CCN(c2nc(=O)n(-c3c(C)ccnc3C(C)C)c3nc(-c4c(F)c(F)cc5ccoc45)c(Cl)cc23)[C@@H](C)C1 (single isomer, unassigned) [Compound 103-1]
IC50 (H23 (KRAS G12C); Homo sapiens, 72 h): < 10 nM
IC50 (KRAS-G12C/SOS1): < 50 nM
IC50 (MIA-Paca2 (KRAS G12C); Homo sapiens, MIA PaCa-2, 72 h): < 10 nM
efflux ratio at 90 min, 10 μM [1]: 2.08
Papp A→B at 90 min, 10 μM [1, 3]: 12.1 ×10⁻⁶ cm/s
Papp A→B at 90 min, 10 μM [1, 4]: 10.7 ×10⁻⁶ cm/s
Papp A→B at 90 min, 10 μM [1, 5]: 11.4 ×10⁻⁶ cm/s
Papp B→A at 90 min, 10 μM [1, 6]: 19.7 ×10⁻⁶ cm/s
Papp B→A at 90 min, 10 μM [1, 7]: 27.8 ×10⁻⁶ cm/s
Papp B→A at 90 min, 10 μM [1, 8]: 23.7 ×10⁻⁶ cm/s
Papp A→B at 90 min, 10 μM [1, 9]: > 10 ×10⁻⁶ cm/s
AUC(0-inf) [2]: 6240 ng·h/mL
Cmax [2]: 2700 ng/mL
Tmax [2]: 1 h
half-life [2]: 362 min
AUC(0-t) [2]: 6190 ng·h/mL
IC50 (H358 (KRAS G12C); Homo sapiens, NCI-H358, 72 h): < 10 nM

Compound: C=CC(=O)N1CCN(c2nc(=O)n(-c3c(C)ccnc3C(C)C)c3nc(-c4c(F)ccc5ccoc45)c(F)cc23)[C@@H](C)C1 (single isomer, unassigned) [Compound 70-1]
IC50 (H23 (KRAS G12C); 72 hours): < 10 nM
IC50 (KRAS-G12C/SOS1): 50 to 100 nM
IC50 (MIA-Paca2 (KRAS G12C); 72 hours): 10 to 50 nM
efflux ratio at 90 min, 10 μM [1]: 1.19
Papp A→B at 90 min, 10 μM [1, 3]: 19 ×10⁻⁶ cm/s
Papp A→B at 90 min, 10 μM [1, 4]: 18.8 ×10⁻⁶ cm/s
Papp A→B at 90 min, 10 μM [1, 5]: 18.9 ×10⁻⁶ cm/s
Papp B→A at 90 min, 10 μM [1, 6]: 21.1 ×10⁻⁶ cm/s
Papp B→A at 90 min, 10 μM [1, 7]: 23.7 ×10⁻⁶ cm/s
Papp B→A at 90 min, 10 μM [1, 8]: 22.4 ×10⁻⁶ cm/s
Papp A→B at 90 min, 10 μM [1, 9]: > 10 ×10⁻⁶ cm/s
AUC(0-inf) [2]: 7910 ng·h/mL
Cmax [2]: 3530 ng/mL
Tmax [2]: 1 h
half-life [2]: 166 min
AUC(0-t) [2]: 7890 ng·h/mL
IC50 (H358 (KRAS G12C); 72 hours): 10 to 50 nM

Compound: C=CC(=O)N1C[C@H](C)N(c2nc(=O)n(-c3c(C)ccnc3C(C)C)c3nc(-c4c(F)c(F)cc5ccoc45)c(Cl)cc23)C[C@H]1C (single isomer, unassigned) [Compound 104-1]
IC50 (H23 (KRAS G12C); Homo sapiens, 72 h): < 10 nM
IC50 (KRAS-G12C/SOS1): < 50 nM
IC50 (MIA-Paca2 (KRAS G12C); Homo sapiens, MIA PaCa-2, 72 h): 10 to 50 nM
efflux ratio at 90 min, 10 μM [1]: 1.92
Papp A→B at 90 min, 10 μM [1, 3]: 11.2 ×10⁻⁶ cm/s
Papp A→B at 90 min, 10 μM [1, 4]: 10.4 ×10⁻⁶ cm/s
Papp A→B at 90 min, 10 μM [1, 5]: 10.8 ×10⁻⁶ cm/s
Papp B→A at 90 min, 10 μM [1, 6]: 22.1 ×10⁻⁶ cm/s
Papp B→A at 90 min, 10 μM [1, 7]: 19.5 ×10⁻⁶ cm/s
Papp B→A at 90 min, 10 μM [1, 8]: 20.8 ×10⁻⁶ cm/s
Papp A→B at 90 min, 10 μM [1, 9]: > 10 ×10⁻⁶ cm/s
AUC(0-inf) [2]: 10500 ng·h/mL
Cmax [2]: 2590 ng/mL
Tmax [2]: 1 h
half-life [2]: 261 min
AUC(0-t) [2]: 10300 ng·h/mL
IC50 (H358 (KRAS G12C); Homo sapiens, NCI-H358, 72 h): < 10 nM

Compound: C=CC(=O)N1C[C@H](C)N(c2nc(=O)n(-c3c(C)ccnc3C(C)C)c3nc(-c4c(F)ccc5ccoc45)c(Cl)cc23)C[C@H]1C (single isomer, unassigned) [Compound 90-1]
IC50 (H23 (KRAS G12C); Homo sapiens, 72 h): < 10 nM
IC50 (KRAS-G12C/SOS1): < 50 nM
IC50 (MIA-Paca2 (KRAS G12C); Homo sapiens, MIA PaCa-2, 72 h): < 10 nM
efflux ratio at 90 min, 10 μM [1]: 1.08
Papp A→B at 90 min, 10 μM [1, 3]: 20.1 ×10⁻⁶ cm/s
Papp A→B at 90 min, 10 μM [1, 4]: 20.4 ×10⁻⁶ cm/s
Papp A→B at 90 min, 10 μM [1, 5]: 20.2 ×10⁻⁶ cm/s
Papp B→A at 90 min, 10 μM [1, 6]: 18.6 ×10⁻⁶ cm/s
Papp B→A at 90 min, 10 μM [1, 7]: 25.2 ×10⁻⁶ cm/s
Papp B→A at 90 min, 10 μM [1, 8]: 21.9 ×10⁻⁶ cm/s
Papp A→B at 90 min, 10 μM [1, 9]: > 10 ×10⁻⁶ cm/s
melting point: 175 to 177 °C
AUC(0-inf) [2]: 13800 ng·h/mL
Cmax [2]: 3720 ng/mL
Tmax [2]: 1.33 h
half-life [2]: 196 min
AUC(0-t) [2]: 13800 ng·h/mL
IC50 (H358 (KRAS G12C); Homo sapiens, NCI-H358, 72 h): < 10 nM
Changes of body weight (%) (H358 xenograft tumor): 23.3%
tumor suppressor T/C value (%) (H358 xenograft tumor): −99.5%

efflux ratio at 90 min, 10 μM (in vitro): 0.93
Papp A→B at 90 min, 10 μM (in vitro; [10]): 33.3 ×10⁻⁶ cm/s
Papp A→B at 90 min, 10 μM (in vitro; [11]): 36.4 ×10⁻⁶ cm/s
Papp A→B at 90 min, 10 μM (in vitro; [12]): 34.8 ×10⁻⁶ cm/s
Papp B→A at 90 min, 10 μM (in vitro; [13]): 29.4 ×10⁻⁶ cm/s
Papp B→A at 90 min, 10 μM (in vitro; [14]): 35.4 ×10⁻⁶ cm/s
Papp B→A at 90 min, 10 μM (in vitro; [15]): 32.4 ×10⁻⁶ cm/s
Compound: COCCc1ccc(OCC(O)CNC(C)C)cc1 (stereo not drawn) [Metoprolol Tartrate]

efflux ratio at 90 min, 10 μM (in vitro): 30.6
Papp A→B at 90 min, 10 μM (in vitro; [10]): 0.46 ×10⁻⁶ cm/s
Papp A→B at 90 min, 10 μM (in vitro; [11]): 0.5 ×10⁻⁶ cm/s
Papp A→B at 90 min, 10 μM (in vitro; [12]): 0.48 ×10⁻⁶ cm/s
Papp B→A at 90 min, 10 μM (in vitro; [13]): 13.8 ×10⁻⁶ cm/s
Papp B→A at 90 min, 10 μM (in vitro; [14]): 15.5 ×10⁻⁶ cm/s
Papp B→A at 90 min, 10 μM (in vitro; [15]): 14.7 ×10⁻⁶ cm/s
Compound: CC[C@H]1OC(=O)[C@H](C)[C@@H](O[C@H]2C[C@@](C)(OC)[C@@H](O)[C@H](C)O2)[C@H](C)[C@@H](O[C@@H]2O[C@H](C)C[C@H](N(C)C)[C@H]2O)[C@](C)(O)C[C@@H](C)C(=O)[C@H](C)[C@@H](O)[C@]1(C)O [Erythromycin]

Compound: C=CC(=O)N1C[C@H](C)N(c2nc(=O)n(-c3c(C)ccnc3C(C)C)c3nc(-c4c(F)c(F)cc5ccoc45)c(F)cc23)C[C@H]1C (single isomer, unassigned) [Compound 91-1]
IC50 (H23 (KRAS G12C); Homo sapiens, 72 h): < 10 nM
IC50 (KRAS-G12C/SOS1): 100 to 500 nM
IC50 (MIA-Paca2 (KRAS G12C); Homo sapiens, MIA PaCa-2, 72 h): 10 to 50 nM
melting point: 156 to 158 °C
AUC(0-inf) [2]: 9710 ng·h/mL
Cmax [2]: 2970 ng/mL
Tmax [2]: 1.17 h
half-life [2]: 163 min
AUC(0-t) [2]: 9680 ng·h/mL
IC50 (H358 (KRAS G12C); Homo sapiens, NCI-H358, 72 h): 10 to 50 nM

Compound: C=CC(=O)N1C[C@H](C)N(c2nc(=O)n(-c3c(C)ccnc3C(C)C)c3nc(-c4c(F)ccc5ccoc45)c(Cl)cc23)C[C@H]1C [Compound 90, 4-((2S,5R)-4-acryloyl-2,5-dimethylpiperazin-1-yl)-6-chloro-7-(6-fluorobenzofuran-7-yl)-1-(2-isopropyl-4-methylpyridin-3-yl)pyrido[2,3-d]pyrimidin-2(1H)-one]
IC50 (H23 (KRAS G12C); Homo sapiens, 72 h): < 10 nM
IC50 (KRAS-G12C/SOS1): 50 to 100 nM
IC50 (MIA-Paca2 (KRAS G12C); 72 hours): 10 to 50 nM
melting point: 167 to 169 °C
AUC(0-inf) [2]: 20400 ng·h/mL
Cmax [2]: 5610 ng/mL
Tmax [2]: 1 h
half-life [2]: 332 min
AUC(0-t) [2]: 20100 ng·h/mL
IC50 (H358 (KRAS G12C); 72 hours): < 10 nM
